Source: patent publication EP4635958A1, “PYRIMIDINE-CONTAINING POLYCYCLIC DERIVATIVE INHIBITOR, AND PREPARATION METHOD THEREFOR AND USE THEREOF” (Shanghai Hansoh Biomedical Co., Ltd., priority 2022, dated 2024)
pIC50: −log10 of the molar value. Structures can show the parent of a compound that is named as a salt. Where two headings read alike, the source gives them in different places.

Experiments:
[1] = test system: AsPC-1; test: Inhibition of proliferation of KRAS G12D mutant tumor cell line AsPC-1 (CellTiter-Glo); type: cell-based
Method in brief: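 KRAS G12D-mutant AsPC-1 cells plated overnight at 37 °C/5% CO2, then exposed to serial compound dilutions (DMSO/medium, vehicle control) for about 72 h. Viability read by CellTiter-Glo luminescence; inhibition rate vs concentration fitted by nonlinear regression for IC50.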

[2] = Pharmacokinetic determination in rats (IV and PO, plasma, LCMS/MS); type: in vivo, SD rats
Method in brief: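 Male SD rats (3/group), fasted overnight, dosed PO at 30 mg/kg in 10% Captisol/50 mM citrate pH 5.0 or IV at 1 mg/kg in 5% DMSO/10% Solutol HS15/85% PBS. Jugular plasma (EDTA-2K) sampled predose to 24 h; analysed by LCMS/MS.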

[3] = test system: GP2D; test: Inhibition of proliferation of KRAS G12D mutant tumor cell line GP2D (CellTiter-Glo); conditions: read-out: GP2D IC50
Description: Experimental method: When SNU-1, HPAF-II, Panc0403, AsPC-1 or GP2D cells were cultured to the appropriate confluence, and the SNU-1, HPAF-II, Panc0403, AsPC-1 or GP2D cells were collected. The cells were adjusted to the appropriate cell density using complete culture medium, the cell suspension was plated onto a 96-well plate at 90 µL per well, and the plate was placed in the incubator at 37°C and 5% CO2 for adherent culture overnight. Solutions of the compound with different concentrations were formulated using DMSO and culture medium. A vehicle control was set up. […] Then, CellTiter-Glo solution was added, and the obtained mixture was shaken and mixed evenly, incubated in the dark for 10 min, and read with a BioTek Synergy H1 microplate reader. […] Experimental data processing method: The luminescence signal value was used to calculate the inhibition rate. Graphpad Prism software was used to fit the concentration and inhibition rate to a nonlinear regression curve, so as to obtain the IC50 value.

[4] = Plasma stability test, mouse plasma; type: in vitro ADME; conditions: for half-life: read-out: t1/2 (converted);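 as to all read-outs here: test compound quantified by LC-MS using positive-mode electrospray ionization and MRM scanning, with an internal standard added in acetonitrile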
Description: (§1) Liquid chromatography-mass spectrometer, centrifuge, vortexer, pipette, continuous dispenser, 96-well plate, 50% methanol aqueous solution, acetonitrile solution containing internal standard, blank matrix (plasma of rat, dog, or human), Propantheline (propantheline bromide), Mevinolin (lovastatin), and test compound.
(§2) After whole blood was collected from animals or humans, it was placed in a test tube containing an anticoagulant and centrifuged at 3500 rpm for 10 min to collect the upper pale yellow plasma.
(§3) The compound was weighed and the stock solution was formulated with DMSO and the working solution was formulated with 100 mM phosphate buffer.
(§4) • Instrument: API4000 liquid chromatography-mass spectrometer, AB Company, USA; • the ion source was electrospray ionization source (ESI); • drying gas (N2) temperature was 500°C; • electrospray voltage was 5500V; • the detection method was positive ion detection; • the scanning method was selected reaction monitoring (MRM); • the scanning time was 0.1s.

[5] = Plasma stability test, human plasma; type: in vitro ADME; conditions: for half-life: read-out: t1/2 (converted);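 as to all read-outs here: test compound incubated in human plasma, quantified by LC-MS/MS (positive-ion ESI, MRM) against an internal standard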
Description: as §1, §2, §3, §4

[6] = Homo sapiens, ASPC1, about 72 h
[7] = PO 30 mg/kg vs IV 1 mg/kg, male SD rats
[8] = rat, in vivo, IV, 1 mg/kg, male SD rats, overnight fasting, plasma, read-out: AUCo-∞
[9] = rat, in vivo, IV, 1 mg/kg, male SD rats, overnight fasting, plasma, read-out: C0
[10] = rat, in vivo, IV, 1 mg/kg, male SD rats, overnight fasting, plasma, read-out: CL
[11] = rat, in vivo, IV, 1 mg/kg, male SD rats, overnight fasting, plasma, read-out: T1/2 (converted)
[12] = rat, in vivo, PO, 30 mg/kg, male SD rats, overnight fasting, plasma, read-out: AUCo-∞
[13] = rat, in vivo, PO, 30 mg/kg, male SD rats, overnight fasting, plasma, read-out: Cmax
[14] = rat, in vivo, PO, 30 mg/kg, male SD rats, overnight fasting, plasma, read-out: T1/2 (converted)
[15] = rat, in vivo, PO, 30 mg/kg, male SD rats, overnight fasting, plasma, read-out: Tmax
[16] = IV, 1 mg/kg, male SD rats, overnight fasting, plasma
[17] = PO, 30 mg/kg, male SD rats, overnight fasting, plasma

| Compound | pIC50 [1, 6] | F [2, 7] [%] | AUC(0-inf) [2, 8] [ng·h/mL] | C0 [2, 9] [ng/mL] | clearance [2, 10] [mL/min/kg] | half-life [2, 11] [h] | AUC(0-inf) [2, 12] [ng·h/mL] | Cmax [2, 13] [ng/mL] | half-life [2, 14] [h] | Tmax [2, 15] [h] | pIC50 ([3]; Homo sapiens, GP2d, 72 h) | Remaining rate (%) 0 min ([4]; Mouse plasma, 37°C, 0 min) [%] | Remaining rate (%) 15 min ([4]; Mouse plasma, 37°C, 15 min) [%] | Remaining rate (%) 30 min ([4]; Mouse plasma, 37°C, 30 min) [%] | Remaining rate (%) 60 min ([4]; Mouse plasma, 37°C, 60 min) [%] | Remaining rate (%) 120 min ([4]; Mouse plasma, 37°C, 120 min) [%] | half-life ([4]; Mouse plasma, 37°C) [h] | Remaining rate (%) 0 min ([5]; Human plasma, 37°C, 0 min) [%] | Remaining rate (%) 15 min ([5]; Human plasma, 37°C, 15 min) [%] | Remaining rate (%) 30 min ([5]; Human plasma, 37°C, 30 min) [%] | other results |
| --- | --- | --- | --- | --- | --- | --- | --- | --- | --- | --- | --- | --- | --- | --- | --- | --- | --- | --- | --- | --- | --- |
| C#Cc1c(F)ccc2cc(O)cc(-c3nc4c5c(nc(OCC6(CN7CCC(=NOC)CC7)CC6)nc5c3F)N3C[C@H]5CC[C@H](N5)[C@H]3[C@H](C)O4)c12 [Example 35-1, 1-((1-((((5S,5aS,6S,9R)-2-(8-ethynyl-7-fluoro-3-hydroxynaphthalen-1-yl)-1-fluoro-5-methyl-5a,6,7,8,9,10-hexahydro-5H-4-oxa-3,10a,11,13,14-pentaaza-6,9-methylenenaphtho[1,8-ab]heptalen-12-yl)oxo)methyl)cyclopropyl)methyl)piperidin-4-one O-methyloxime formate] | 8.42 | 3.5 | 571 | 2810 | 29.2 | 5.7 | 601 | 108 | 3.4 | 2 | 9.68 |  |  |  |  |  |  |  |  |  |  |
| C#Cc1c(F)ccc2cc(O)cc(-c3nc4c5c(nc(OCC6(CN7CCC(=C(F)F)CC7)CC6)nc5c3F)N3C[C@H]5CC[C@H](N5)[C@H]3CO4)c12 [Example 1-1, 4-((5aS,6S,9R)-12-((1-((4-(difluoromethylene)piperidin-1-yl)methyl)cyclopropyl)methoxy)-1-fluoro-5a,6,7,8,9,10-hexahydro-5H-4-oxa-3,10a,11,13,14-pentaaza-6,9-methylenenaphtho[1,8-ab]heptalene-2-yl)-5-ethynyl-6-fluoronaphthalen-2-ol] |  | 2.1 | 2960 | 1770 | 5.6 | 16.3 | 1890 | 254 | 5.1 | 6 | 8.92 | 100.00 | 94.74 | 96.27 | 96.21 | 98.50 | 146 | 100.00 | 100.68 | 101.72 | Remaining rate (%) 60 min ([5]; Human plasma, 37°C, 60 min): 97.62%; Remaining rate (%) 120 min ([5]; Human plasma, 37°C, 120 min): 88.35%; half-life ([5]; Human plasma, 37°C): 31.4 h |
| [2H]C([2H])(Oc1nc2c3c(nc(-c4cc(O)cc5ccc(F)c(C#C)c45)c(F)c3n1)O[C@@H](C)[C@@H]1[C@@H]3CC[C@H](CN21)N3)C1(C([2H])([2H])N2CCC(=CF)CC2)CC1 [Example 291, 5-ethynyl-6-fluoro-4-((5S,5aS,6S,9R)-1-fluoro-12-((1-((4-(fluoromethylene)piperidin-1-yl)methyl-d2)cyclopropyl)methoxy-d2)-5-methyl-5a,6,7,8,9,10-hexahydro-5H-4-oxa-3,10a,11,13,14-pentaaza-6,9-methylnaphtho[1,8-ab]hept-2-yl)naphthalen-2-ol] | 8.34 |  |  |  |  |  |  |  |  |  | 9.82 | 100.00 | 97.50 | 82.58 | 81.82 | 63.23 | 3.08 | 100.00 | 102.43 | 95.46 | Remaining rate (%) 60 min ([5]; Human plasma, 37°C, 60 min): 105.44%; Remaining rate (%) 120 min ([5]; Human plasma, 37°C, 120 min): 96.68%; half-life ([5]; Human plasma, 37°C): 115 h |
| [2H]C([2H])([2H])[C@@H]1Oc2nc(-c3cc(O)cc4ccc(F)c(C#C)c34)c(F)c3nc(OCC4(CN5CCC(=C(F)F)CC5)CC4)nc(c23)N2C[C@H]3CC[C@H](N3)[C@@H]12 [Example 161, 4-((5S,5aS,6S,9R)-12-((1-((4-(difluoromethylene)piperidin-1-yl)methyl)cyclopropyl)methoxy)-1-fluoro-5-(methyl-d3)-5a,6,7,8,9,10-hexahydro-5H-4-oxa-3,10a,11,13,14-pentaaza-6,9-methylnaphtho[1,8-ab]hept-2-yl)-5-ethynyl-6-fluoronaphthalen-2-ol] | 8.36 |  |  |  |  |  |  |  |  |  | 9.62 |  |  |  |  |  | 229 |  |  |  | F ([2]; rat, in vivo): 7%; AUC(0-inf) ([2]; rat, in vivo, iv, 1 mg/kg): 1420 ng·h/mL; C0 ([2]; rat, in vivo, iv, 1 mg/kg): 704 ng/mL; clearance ([2]; rat, in vivo, iv, 1 mg/kg): 11.7 mL/min/kg; half-life ([2]; rat, in vivo, iv, 1 mg/kg): 8.4 h; AUC(0-inf) ([2]; rat, in vivo, po, 30 mg/kg): 2890 ng·h/mL; Cmax ([2]; rat, in vivo, po, 30 mg/kg): 254 ng/mL; Tmax ([2]; rat, in vivo, po, 30 mg/kg): 6 h; half-life ([2]; rat, in vivo, po, 30 mg/kg): 6.9 h; Remaining rate (%) 0 min ([4]; mouse, plasma, 0 h): 100.00%; Remaining rate (%) 15 min ([4]; mouse, plasma, 0.25 h): 101.36%; Remaining rate (%) 30 min ([4]; mouse, plasma, 0.5 h): 101.38%; Remaining rate (%) 60 min ([4]; mouse, plasma, 1 h): 98.35%; Remaining rate (%) 120 min ([4]; mouse, plasma, 2 h): 101.35%; half-life ([5]; Human plasma, 37°C): 142 h; Remaining rate (%) 0 min ([5]; human, plasma, 0 h): 100.00%; Remaining rate (%) 15 min ([5]; human, plasma, 0.25 h): 93.48%; Remaining rate (%) 30 min ([5]; human, plasma, 0.5 h): 92.44%; Remaining rate (%) 60 min ([5]; human, plasma, 1 h): 95.19%; Remaining rate (%) 120 min ([5]; human, plasma, 2 h): 97.25% |
| 4-((5S,5aS,6R,9S)-12-((1-((((R)-4-(difluoromethylene)-2-methylpiperidin-1-yl)methyl)cyclopropyl)methoxy)-1-fluoro-5-(methyl-d3)-5a,6,7,8,9,10-hexahydro-5H-4-oxa-3,10a,11,13,14-pentaaza-6,9-methylnaphtho[1,8-ab]hept-2-yl)-5-ethynyl-6-fluoronaphthalen-2-ol [Example 162] |  | 10.3 |  |  |  |  |  |  |  |  |  |  |  |  |  |  |  |  |  |  | pIC50 ([1]; about 72 h): 8.40; AUCo-∞ [2, 16]: 514 ng·h/mL; C0 [2, 16]: 438 ng/mL; CL [2, 16]: 32.4 mL/min/kg; T1/2 [2, 16]: 10.8 h; AUCo-∞ [2, 17]: 1591 ng·h/mL; Cmax [2, 17]: 89 ng/mL; T1/2 [2, 17]: 10.5 h; Tmax [2, 17]: 4.0 h; pIC50 ([3]; proliferation, about 72 h, CellTiter-Glo): 9.70 |
| C#Cc1c(F)ccc2cc(O)cc(-c3nc4c5c(nc(OCC6(CN7CCC(=CF)CC7)CC6)nc5c3F)N3C[C@H]5CC[C@H](N5)[C@H]3[C@H](C)O4)c12 [Example 129, 5-ethynyl-6-fluoro-4-((5S,5aS,6S,9R)-1-fluoro-12-((1-((4-(fluoromethylene)piperidin-1-yl)methyl)cyclopropyl)methoxy)-5-methyl-5a,6,7,8,9,10-hexahydro-5H-4-oxa-3,10a,11,13,14-pentaaza-6,9-methylnaphtho[1,8-ab]hept-2-yl)naphthalen-2-ol] | 8.44 | 5.4 | 578 | 2120 | 28.8 | 11.7 | 938 | 103 | 9.6 | 1 | 9.77 | 100.00 | 97.30 | 103.47 | 104.94 | 91.62 | 37.6 | 100.00 | 109.00 | 97.59 | t1/2 ([5]; Human plasma, 37°C): ∞; Remaining rate (%) 60 min ([5]; Human plasma, 37°C, 60 min): 101.54%; Remaining rate (%) 120 min ([5]; Human plasma, 37°C, 120 min): 105.91% |
| [2H]C([2H])([2H])[C@@H]1Oc2nc(-c3cc(N)cc(Cl)c3C(F)(F)F)c(F)c3nc(OCC4(CN5CCC(=NOC)CC5)CC4)nc(c23)N2C[C@H]3CC[C@H](N3)[C@@H]12 [Example 339] | 8.46 | 6.6 | 98 | 174 | 170 | 2.6 | 220 | 43 | 3 | 2 | 10.00 |  |  |  |  |  |  |  |  |  |  |
| CON=C1CCN(CC2(COc3nc4c5c(nc(-c6cc(N)cc(Cl)c6C(F)(F)F)c(F)c5n3)O[C@@H](C)[C@@H]3[C@@H]5CC[C@H](CN43)N5)CC2)CC1 [Example 337, 1-((1-((((5S,5aS,6S,9R)-2-(5-amino-3-chloro-2-(trifluoromethyl)phenyl)-1-fluoro-5-methyl-5a,6,7,8,9,10-hexahydro-5H-4-oxa-3,10a,11,13,14-pentaaza-6,9-methylnaphtho[1,8-ab]heptene-12-yl)oxy)methyl)cyclopropyl)methyl)piperidin-4-one O-methyloxime] | 8.92 |  |  |  |  |  | 374 | 41 | 4.2 | 4 | 9.96 |  |  |  |  |  |  |  |  |  |  |
